{
  "source": "patent US11332500B2",
  "about": "“Heterotandem bicyclic peptide complexes” (BicycleTx Limited, priority 2019, dated 2022)",
  "biological_target": "T1, CD137 (Homo sapiens, UniProt Q07011)",
  "T1 construct": "host or cells: Jurkat reporter cells from the Promega kit, co-cultured with tumour cells (NCI-H292, PC3 or RKO)",
  "T1 sequence (Q07011 24-255)": "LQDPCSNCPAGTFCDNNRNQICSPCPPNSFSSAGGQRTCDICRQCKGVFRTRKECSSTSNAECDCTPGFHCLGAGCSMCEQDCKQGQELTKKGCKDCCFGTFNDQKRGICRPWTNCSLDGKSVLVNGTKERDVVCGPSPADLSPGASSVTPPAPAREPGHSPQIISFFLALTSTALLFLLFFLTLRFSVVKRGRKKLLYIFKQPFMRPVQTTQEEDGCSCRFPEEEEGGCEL",
  "test": "CD137 reporter assay co-culture with RKO tumour cells (PD-L1/CD137 heterotandems)",
  "format": "cell-based",
  "conditions": "Jurkat CD137 reporter cells co-cultured with RKO (PD-L1), 6 h; read-out: Fold Induction over background",
  "method": "Culture medium, referred to as R1 media, is prepared by adding 1% FBS to RPMI-1640 (component of Promega kit CS196005). Serial dilutions of test articles in R1 are prepared in a sterile 96 well-plate. Add 25 μL per well of test articles or R1 (as a background control) to designated wells in a white cell culture plate. Tumour cells* are harvested and resuspended at a concentration of 400,000 cells/mL in R1 media. Twenty five (25) μL/well of tumour cells are added to the white cell culture plate. Jurkat cells (Promega kit CS196005, 0.5 mL) are thawed in the water bath and then added to 5 ml pre-warmed R1 media. Twenty five (25) μL/well of Jurkat cells are then added to the white cell culture plate. Incubate the cells and test articles for 6 h at 37° C., 5% CO2. At the end of 6 h, add 75 μL/well Bio-Glo™ reagent (Promega) and incubate for 10 min before reading luminescence in a plate reader (Clariostar, BMG). The fold change relative to cells alone (Jurkat cells+Cell line used in co-culture) is calculated and plotted in GraphPad Prism as log(agonist) vs response to determine EC50 (nM) and Fold Induction over background (Max).\nThe tumour cell type used in co-culture for EphA2 is PC3. The tumour cell type used in co-culture for PD-L1 is RKO.\nA summary of the fold induction induced by PD-L1/CD137 heterotandem peptides in the CD137 reporter coculture assay with RKO cells is shown in Table 3.",
  "note": "*1 amine or outer side, *2 acyl side, *3 side chain or, on linkers, in order; H or OH if unused. Where a SMILES comes first, the peptide text is derived from it. Bridges are numbered along the chain shown (N, C = ends). Roman numbers before positions name the chains, in order. [ ]: non-standard residue; d: D form. TATA = O=C(CC[*:1])N1CN(C(=O)CC[*:2])CN(C(=O)CC[*:3])C1; X2 = O=C(CCOCCOCCOCCOCCOCCn1cc(CCC(=O)[*:2])nn1)[*:1]; hArg = N=C(N)NCCCC[C@H](N)C(=O)O; tBuAla = CC(C)(C)C[C@H](N)C(=O)O; Nle = CCCC[C@H](N)C(=O)O",
  "data": [
    {"compound": "CCCC[C@@H]1NC(=O)[C@H](Cc2ccc(O)cc2)NC(=O)[C@@H]2CCCN2C(=O)[C@H](CC(=O)O)NC(=O)[C@H](C)NC(=O)[C@H](Cc2ccccc2)NC(=O)[C@@H]2CSCCC(=O)N3CN(CN(C3)C(=O)CCSC[C@@H](C(=O)N[C@@H](C)C(N)=O)NC1=O)C(=O)CCSC[C@H](NC(C)=O)C(=O)N[C@@H](CC(C)(C)C)C(=O)N1CCC[C@H]1C(=O)N[C@@H](CCC(=O)O)C(=O)N[C@H](CCCCNC(=O)CCc1cn(CCOCCOCCOCCOCCOCCC(=O)NCCCC[C@@H]3NC(=O)[C@H](CC(C)C)NC(=O)[C@H](CCCCNC(C)=O)NC(=O)[C@H](CCC(N)=O)NC(=O)[C@@H]4CSCCC(=O)N5CN(CN(C5)C(=O)CCSC[C@@H](C(=O)N5CCC[C@H]5C(=O)N[C@@H](CO)C(=O)N[C@@H](Cc5c[nH]cn5)C(N)=O)NC(=O)[C@H](CC(C)C)NC3=O)C(=O)CCSC[C@H](NC(=O)[C@H](CCCCNC(=N)N)NC(=O)[C@H](CC(=O)O)NC(C)=O)C(=O)N[C@@H](CO)C(=O)N[C@@H](C)C(=O)NCC(=O)N[C@@H](Cc3c[nH]c5ccccc35)C(=O)N[C@@H](CC(C)C)C(=O)N[C@@H]([C@@H](C)O)C(=O)N[C@@H](CCSC)C(=O)N4)nn1)C(=O)N1CCC[C@H]1C(=O)N[C@@H](Cc1ccc(O)cc1)C(=O)N2", "note": "[BCY12242] (I: Ac-D[hArg]CSAGWLTMCQK(Ac)LKLCPSH-NH2 / II: Ac-C[tBuAla]PE[dK]PYCFADPY[Nle]CA-NH2; linker I:3-I:11-I:17, II:1-II:8-II:15 via TATA; linker I:15-II:5 via X2)", "values": [
      {"measurement": "fold induction", "value": 13}
    ]}
  ]
}
